Reference: patent US20260375233A1, “COMPOSITION FOR IMPROVING SKIN WRINKLES” (LG H&H CO., LTD., priority 2022, published 2026)

Legend:
Assay type in all cases: cell-based
Type I collagen (COL1A1) = experiment: collagen mRNA synthesis promotion (qPCR), COL1A1 in human skin fibroblasts; details: 24 hours, mRNA by qPCR
Procedure: (§1) Human skin fibroblasts (NHDF-Neo-Human Dermal Fibroblasts, Neonatal, Lonza, CC-2509) were purchased from Lonza and then used. The purchased cells were cultured in an incubator (37 °C, 5% CO2) using media prepared by mixing Dulbecco Modified Eagle Medium (DMEM, Thermo Fisher Scientific) with 10% fetal bovine serum (FBS) and 1% antibiotics (penicillin streptomycin).
(§2) To analyze the efficacy of promoting collagen mRNA synthesis, human skin fibroblasts were dispensed on a 6-well plate at 1.5×10^5 cells/well and cultured in an incubator (37 °C, 5% CO2) for 24 hours. The substances were added to serum free media at an appropriate concentration/combination, and then the cells were again cultured for 24 hours under the same conditions. Thereafter, mRNA was obtained using an RNA-spin total RNA extraction kit (iNtRON Biotechnology, 17211), and cDNA was synthesized using a cDNA synthesis kit (PhileKorea Technology, ET21100). The expression level of each gene was analyzed by performing qPCR using the synthesized cDNA and taqman probes (assay ID: COL1A1-Hs00164004_m1, COL3A1-Hs00943809_m1, COL4A1-Hs00266237_m1, BNC2-Hs00417700_m1, EDAR-Hs00223468_m1).
as §2, with “COL1A1-Hs00164004_m1,” for “COL1A1-Hs00164004_m1, COL3A1-Hs00943809_m1,”, “sgpp2-Hs00544786_m1), ADIPOQ F primer (5′-[…]-3′), and ADIPOQ R primer (5′-[…]-3′).” for “BNC2-Hs00417700_m1, EDAR-Hs00223468_m1).”
as §2, with “PPARGC1B-Hs00993805_m1, SPATA5-Hs01047535_m1, EN1-Hs00154977_m1).” for “COL4A1-Hs00266237_m1, BNC2-Hs00417700_m1, EDAR-Hs00223468_m1).”

PPARGC1B = PPARGC1B gene expression (qPCR) in human skin fibroblasts; details: 24 hours, Non-treated = 1.00
Procedure: as §1
as §2, with “PPARGC1B-Hs00993805_m1, SPATA5-Hs01047535_m1, EN1-Hs00154977_m1).” for “COL4A1-Hs00266237_m1, BNC2-Hs00417700_m1, EDAR-Hs00223468_m1).”
For example, PPARGC1B, one of co-activators of peroxisome proliferator activated receptor-γ (PPARγ), has been known to be associated with melanogenesis in the skin. PPARGC1B has been reported to be involved in the wrinkle formation by mitochondrial dysfunction and the wrinkle reduction by mitochondrial function recovery (Cell Death & Disease volume 9, Article number: 735 (2018)). Therefore, the increased expression level of PPARGC1B serves to restore the function of mitochondria, which are cell energy producing organelles, thereby preventing and recovering from nasolabial wrinkles, which are deeply indented wrinkles accumulated over a relatively long time. That is, it can be seen that the increase in expression level of PPARGC1B by the treatment with the substances of the present invention is effective in wrinkle improvement.

EDAR = EDAR gene expression (qPCR) in human skin fibroblasts; details: 24 hours, FIG. 7
Procedure: as §1
as §2, with “EDAR-Hs00223468_m1). […]” for “EDAR-Hs00223468_m1).”

[1] = system: Type III collagen (COL3A1); experiment: collagen mRNA synthesis promotion (qPCR), COL3A1 in human skin fibroblasts; details: 24 hours, mRNA by qPCR
Procedure: as §1
as §2, with “Thereafter, mRNA was obtained using an RNA-spin total RNA extraction kit (iNtRON Biotechnology, 17211), and cDNA was synthesized using a cDNA synthesis kit (PhileKorea Technology, ET21100).” left out
To analyze the efficacy of promoting collagen mRNA synthesis, human skin fibroblasts were dispensed on a 6-well plate at 1.5×10^5 cells/well and cultured in an incubator (37 °C, 5% CO2) for 24 hours. […] The expression level of each gene was analyzed by performing qPCR using the synthesized cDNA and taqman probes (assay ID: COL1A1-Hs00164004_m1, COL3A1-Hs00943809_m1, PPARGC1B-Hs00993805_m1, SPATA5-Hs01047535_m1, EN1-Hs00154977_m1).

[2] = system: Type IV collagen (COL4A1); experiment: collagen mRNA synthesis promotion (qPCR), COL4A1 in human skin fibroblasts; details: 24 hours, mRNA by qPCR
Procedure: as §1, §2
as §2, with “COL1A1-Hs00164004_m1,” for “COL1A1-Hs00164004_m1, COL3A1-Hs00943809_m1,”, “sgpp2-Hs00544786_m1), ADIPOQ F primer (5′-[…]-3′), and ADIPOQ R primer (5′-[…]-3′).” for “BNC2-Hs00417700_m1, EDAR-Hs00223468_m1).”

SGPP2 = SGPP2 gene expression (qPCR) in human skin fibroblasts; details: 24 hours, FIG. 15
Procedure: as §1
as §2, with “COL1A1-Hs00164004_m1,” for “COL1A1-Hs00164004_m1, COL3A1-Hs00943809_m1,”, “sgpp2-Hs00544786_m1), ADIPOQ F primer (5′-[…]-3′), and ADIPOQ R primer (5′-[…]-3′).” for “BNC2-Hs00417700_m1, EDAR-Hs00223468_m1).”
For example, SGPP2 is a gene expressing an enzyme capable of dominantly acting in an inflammation status, and the overactivity of SGPP2 may be more vulnerable to inflammatory signals. […]

SPATA5 = SPATA5 gene expression (qPCR) in human skin fibroblasts; details: 24 hours, Untreated = 1.00
Procedure: as §1
as §2, with “PPARGC1B-Hs00993805_m1, SPATA5-Hs01047535_m1, EN1-Hs00154977_m1).” for “COL4A1-Hs00266237_m1, BNC2-Hs00417700_m1, EDAR-Hs00223468_m1).”
Although the role of SPATA5 in the skin has not been studied, SPATA5 may play a role in mitochondrial function and ATP production. […]

BNC2 = BNC2 gene expression (qPCR) in human skin fibroblasts; details: 24 hours, FIG. 6
Procedure: as §1, §2
The degrees of fine wrinkle improvement by the substances of the present invention were investigated on the basis of the polymorphism markers showing correlations with the degree of skin fine wrinkles, obtained through Example 1. […]

ADIPOQ = ADIPOQ gene expression (qPCR) in human skin fibroblasts; details: 24 hours, FIG. 16
Procedure: as §1
as §2, with “COL1A1-Hs00164004_m1,” for “COL1A1-Hs00164004_m1, COL3A1-Hs00943809_m1,”, “sgpp2-Hs00544786_m1), ADIPOQ F primer (5′-[…]-3′), and ADIPOQ R primer (5′-[…]-3′).” for “BNC2-Hs00417700_m1, EDAR-Hs00223468_m1).”
As another example, ADIPOQ, a gene expressing adiponectin, is a substance primarily secreted in adipose tissue, and ADIPOQ in the skin is mainly known for anti-inflammatory effects thereof. […]

Row | Compound | expression of Type I collagen (COL1A1) (Type I collagen (COL1A1)) | expression of Type IV collagen (COL4A1) [2] | further results
1 | NC(=O)c1cccnc1 [niacinamide] | promoted the expression |  | Gene expression level (PPARGC1B) (PPARGC1B): 1.52
2 | C=C(C)[C@@H]1CC[C@]2(C)CC[C@@H]3[C@H](CC[C@H]4[C@@]3(C)CC[C@H]3C(C)(C)[C@@H](O)CC[C@]43C)[C@@H]12 [lupeol] |  |  | expression of EDAR (EDAR): increased the expression; expression of Type III collagen (COL3A1) [1]: promoted the expression
3 | COc1cc(/C=C/C(=O)NCCc2c[nH]c3ccc(O)cc23)ccc1O [N-feruloylserotonin] |  | promoted the expression | expression of SGPP2 (SGPP2): inhibited the expression
4 | NC[C@H]1CC[C@H](C(=O)O)CC1 [tranexamic acid, reference compound] | promoted the expression |  | Expression level of gene (SPATA5) (SPATA5): 1.21
5 | O=C(CCc1ccc(O)cc1)c1c(O)cc(O)cc1O [phloretin] | promoted the expression | promoted the expression | expression of BNC2 (BNC2): inhibited the expression; expression of Type III collagen (COL3A1) [1]: promoted the expression
6 | COc1ccc(-c2coc3cc(O)ccc3c2=O)cc1 [formononetin] | promoted the expression | promoted the expression | expression of ADIPOQ (ADIPOQ): increased the expression
7 | CC12CCC(CC1=O)C2(C)C (centres unmarked) [camphor] | promoted the expression |  | Gene expression level (PPARGC1B) (PPARGC1B): 2.63
8 | fucoidan |  | promoted the expression | expression of SGPP2 (SGPP2): inhibited the expression
9 | O=C[C@@H](O)[C@@H](O)[C@H](O)[C@H](O)COP(=O)([O-])[O-].[Na+].[Na+] [sodium mannose phosphate, D-mannose-6-phosphate sodium salt] | promoted the expression |  | Gene expression level (PPARGC1B) (PPARGC1B): 1.53
10 | Cc1ncc(CO)c(CO)c1O.Cl [pyridoxine HCl] | promoted the expression |  | Expression level of gene (SPATA5) (SPATA5): 1.36
11 | Cc1cc(O)c2c(c1)C(=O)c1cc(O)cc(O)c1C2=O [emodin] | promoted the expression | promoted the expression | expression of ADIPOQ (ADIPOQ): increased the expression
